{
  "source": "patent US9895344B2",
  "about": "“Treating various disorders with 7,8-dihydroxyflavone and derivatives thereof” (EMORY UNIVERSITY, priority 2008, dated 2018)",
  "key": {"[1]": {"target": "T1, TrkB intracellular domain (ICD) (Rattus norvegicus, UniProt Q63604)", "T1 construct": "purified TrkB extracellular domain (ECD) and intracellular domain (ICD) recombinant proteins", "T1 sequence (Q63604 454-821 limits assumed)": "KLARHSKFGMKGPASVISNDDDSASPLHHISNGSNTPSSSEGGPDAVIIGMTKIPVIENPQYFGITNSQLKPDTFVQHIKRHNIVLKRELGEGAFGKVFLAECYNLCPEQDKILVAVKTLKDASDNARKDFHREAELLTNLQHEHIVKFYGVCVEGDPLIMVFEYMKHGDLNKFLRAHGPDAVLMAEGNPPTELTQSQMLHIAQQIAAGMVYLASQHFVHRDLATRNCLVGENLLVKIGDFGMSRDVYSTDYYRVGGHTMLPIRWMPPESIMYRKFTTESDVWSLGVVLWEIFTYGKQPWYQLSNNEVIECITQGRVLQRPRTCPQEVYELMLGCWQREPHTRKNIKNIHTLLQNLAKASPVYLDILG", "assay": "In vitro binding assay with [3H]7,8-dihydroxyflavone: TrkB ICD", "conditions": "gradual increments of [3H]-7,8-dihydroxyflavone", "method": "(§1) To determine whether 7,8-dihydroxyflavone physically and directly binds the TrkB receptor, in vitro binding assays were conducted with purified TrkB extracellular domain (ECD) and intracellular domain (ICD) recombinant proteins. Purified TrkB ECD and ICD (10 μg of each) were incubated with different concentrations of ^3H-7,8-dihydroxyflavone in 1 ml of binding buffer (0.05M Na/K phosphate buffer, pH 7.1, 200 mM NaCl) at 4° C. for 10 minutes. After the incubation, the reaction mixture was loaded on filter paper. The mixture was washed three times with Tris buffer (100 mM Tris, pH 7.1), and the dried filter paper was put into a small vial and subjected to liquid scintillation counter analysis. […] The value of the dissociate constant and the number of sites were obtained from Scatchard plots using the equation r/[L]free=n/Kd−r/Kd, where r is the ratio of the concentration of bound ligand to the total protein concentration and n is the number of binding sites."}, "TrkB": {"target": "TrkB (Rattus norvegicus, UniProt Q63604)", "sequence (Q63604 32-821)": "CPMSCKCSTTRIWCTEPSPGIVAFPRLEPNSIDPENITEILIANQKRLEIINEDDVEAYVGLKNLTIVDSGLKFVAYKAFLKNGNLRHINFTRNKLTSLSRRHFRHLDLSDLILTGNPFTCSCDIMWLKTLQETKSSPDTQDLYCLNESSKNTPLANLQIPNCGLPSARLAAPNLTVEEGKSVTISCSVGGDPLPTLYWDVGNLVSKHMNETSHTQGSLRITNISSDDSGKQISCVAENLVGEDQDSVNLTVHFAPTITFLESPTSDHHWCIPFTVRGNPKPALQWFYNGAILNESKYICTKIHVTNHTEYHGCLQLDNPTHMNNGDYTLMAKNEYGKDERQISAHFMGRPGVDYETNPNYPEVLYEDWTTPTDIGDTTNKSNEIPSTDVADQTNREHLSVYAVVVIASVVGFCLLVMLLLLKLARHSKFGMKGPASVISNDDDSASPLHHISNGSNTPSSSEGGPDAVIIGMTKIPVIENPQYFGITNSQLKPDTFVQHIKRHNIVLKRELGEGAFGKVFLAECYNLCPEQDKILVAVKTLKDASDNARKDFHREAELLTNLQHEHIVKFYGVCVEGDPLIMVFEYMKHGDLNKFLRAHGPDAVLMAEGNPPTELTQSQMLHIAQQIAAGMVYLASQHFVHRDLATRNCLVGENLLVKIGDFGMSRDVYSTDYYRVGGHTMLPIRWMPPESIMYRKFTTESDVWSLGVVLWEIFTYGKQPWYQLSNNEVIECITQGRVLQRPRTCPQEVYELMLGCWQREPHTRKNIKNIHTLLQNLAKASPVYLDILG", "assay": "Tyrosine phosphorylation of Trk receptors in transfected HEK293 cells: TrkB", "type": "cell-based", "design": "expressed in transfected cells; host or cells: HEK293", "conditions": "FIG. 15", "from_the_text": "To determine if 7,8-dihydroxyflavone promoted tyrosine phosphorylation of the other Trk receptors, HEK293 cells were transfected with various Trk receptors, followed by treatment with 7,8-dihydroxyflavone."}, "[2]": {"target": "T2, TrkB extracellular domain (ECD) (Rattus norvegicus, UniProt Q63604)", "T2 construct": "purified TrkB extracellular domain (ECD) and intracellular domain (ICD) recombinant proteins", "T2 sequence (Q63604 32-429 limits assumed)": "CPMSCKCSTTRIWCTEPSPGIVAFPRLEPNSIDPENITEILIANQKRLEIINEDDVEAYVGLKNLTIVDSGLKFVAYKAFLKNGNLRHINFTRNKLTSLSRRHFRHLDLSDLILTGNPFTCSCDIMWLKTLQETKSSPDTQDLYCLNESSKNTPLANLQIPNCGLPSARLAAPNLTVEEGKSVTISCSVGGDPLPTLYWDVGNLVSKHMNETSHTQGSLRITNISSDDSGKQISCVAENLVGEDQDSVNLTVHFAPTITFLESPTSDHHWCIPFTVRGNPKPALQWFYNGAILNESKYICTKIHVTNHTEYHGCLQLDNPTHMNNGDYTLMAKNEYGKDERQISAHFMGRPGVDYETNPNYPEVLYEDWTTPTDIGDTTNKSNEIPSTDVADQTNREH", "assay": "In vitro binding assay with [3H]7,8-dihydroxyflavone, filter, Scatchard plot: TrkB ECD", "method": "as §1"}},
  "data": [
    {"smiles": "O=c1cc(-c2ccccc2)oc2c(O)c(O)ccc12", "note": "[7,8-dihydroxyflavone]", "values": [
      {"measurement": "binding to TrkB ICD", "setting": "[1]", "result": "not ICD"},
      {"measurement": "tyrosine phosphorylation of TrkB receptor", "setting": "TrkB", "result": "elicited tyrosine phosphorylation"},
      {"measurement": "Kd", "setting": "[2]; Scatchard plot, 4° C., 10 minutes, FIG. 16, read-out: binding constant Kd", "result": 320, "unit": "nM"},
      {"measurement": "binding to TrkB ECD", "setting": "[2]; gradual increments of [3H]-7,8-dihydroxyflavone", "result": "progressively bound TrkB ECD"}
    ]}
  ]
}
